The values below come from PubChem BioAssay (NCI).

Some test systems named below: NCI-H23 lung; U251 CNS; SK-MEL-5 melanoma; UACC-257 melanoma; OVCAR-4 ovarian; UACC-62 melanoma; MDA-MB-435; MDA-MB-231 breast; HCT-116 colon; HL-60(TB) leukemia; 786-0 renal.
Holding throughout (assay): inhibition of tumour cell growth, NCI panel, 48 h

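Dose response: 5 concentrations. Exposure: 48 h. Format: 96-well plates. Endpoint: linear interpolation; highest concentration if not reached. GI50 is the concentration that inhibits growth by half. The concentration for full growth arrest is given as TGI.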 A value given as a limit tells only on which side of the number the result lay.

In the case of `O=C1c2c(c3c4cc(F)ccc4oc3c3[nH]c4ccccc4c23)C(=O)N1O`, the GI50 was 1.65 µM in the test on NCI-H23 lung; 0.904 µM in the test on U251 CNS; 1.23 µM in the test with SK-MEL-5 melanoma; 2.31 µM in the test with UACC-257 melanoma; 4.82 µM with OVCAR-4 ovarian; 1.48 µM in the test with UACC-62 melanoma. Besides, the GI50 with MDA-MB-435 is 3.02 µM; with MDA-MB-231 breast, 2.68 µM. The TGI was 8.45 µM with NCI-H23 lung; 13.4 µM with U251 CNS; 2.6 µM in the test with SK-MEL-5 melanoma; 6.68 µM with UACC-257 melanoma; over 100 µM with OVCAR-4 ovarian; 3.41 µM in the test with UACC-62 melanoma. Also, the TGI is over 100 µM with MDA-MB-435 and 21.6 µM in the test on MDA-MB-231 breast.

Consider `O=C(NC(=S)Nc1ccc(Br)cc1)c1ccc2c(c1)Sc1ccccc1O2`, for which the TGI in the test with NCI-H23 lung, with U251 CNS, in the test on SK-MEL-5 melanoma, in the test with UACC-257 melanoma, in the test on HCT-116 colon and in the test on UACC-62 melanoma was over 100 µM throughout. The TGI with HL-60(TB) leukemia, with MDA-MB-435, with 786-0 renal and with MDA-MB-231 breast was over 100 µM each time.

Turning to `CN(C)CCNC(=O)c1cccc2c1C(=O)c1ccccc1C2=O`, the TGI was 50 µM in the test on NCI-H23 lung; over 100 µM in the test on U251 CNS; 40.2 µM with SK-MEL-5 melanoma; 54.4 µM in the test with UACC-257 melanoma; 66.5 µM in the test with HCT-116 colon; 88.8 µM in the test on OVCAR-4 ovarian. Besides, the TGI in the test on UACC-62 melanoma stood at 47.9 µM; in the test with HL-60(TB) leukemia, 57.8 µM.

`Nc1nnc(N)n1N`: the TGI with NCI-H23 lung, in the test with U251 CNS, with SK-MEL-5 melanoma, in the test on UACC-257 melanoma, in the test with HCT-116 colon and in the test on OVCAR-4 ovarian was over 100 µM in each case. For the same compound, the TGI in the test on UACC-62 melanoma, in the test with HL-60(TB) leukemia and in the test on 786-0 renal was over 100 µM throughout.

`COc1cc(/C=C/c2ccc(OC)c(OC)c2)oc(=O)c1`: the TGI in the test on NCI-H23 lung, in the test on U251 CNS, in the test on SK-MEL-5 melanoma, in the test on UACC-257 melanoma, with HCT-116 colon and with OVCAR-4 ovarian was over 250 µM in each case. In addition, the TGI was over 250 µM in the test on UACC-62 melanoma and over 184 µM in the test with HL-60(TB) leukemia.

Turning to `CCOC(=O)/C(C(N)=O)=C(\O)C(=O)/C=C(\O)c1ccc(Cl)cc1`, the TGI with NCI-H23 lung was 33.6 µM; in the test on U251 CNS, 29.1 µM; in the test with SK-MEL-5 melanoma it was 36.8 µM; in the test on UACC-257 melanoma it was 32.2 µM; in the test on HCT-116 colon it was 28.7 µM; with OVCAR-4 ovarian, over 100 µM. Besides, the TGI in the test on UACC-62 melanoma was determined as 43.1 µM; with MDA-MB-435 it was 57.7 µM; in the test with 786-0 renal it was 32.2 µM; with MDA-MB-231 breast, 32.2 µM.

Take `O=S1(=O)OCCOS(=O)(=O)C1(F)Cc1ccccc1`: the TGI with NCI-H23 lung, with U251 CNS, with SK-MEL-5 melanoma, with HCT-116 colon, with OVCAR-4 ovarian and with UACC-62 melanoma was over 100 µM throughout. For the same compound, the TGI in the test on HL-60(TB) leukemia, with MDA-MB-435, in the test with 786-0 renal and with MDA-MB-231 breast was over 100 µM each time.

As for `O=C(Cn1c2ccc(Br)cc2c2nc3ccccc3nc21)NCc1ccccc1`, the TGI was over 100 µM with NCI-H23 lung; 69.7 µM with U251 CNS; over 100 µM in the test with SK-MEL-5 melanoma; over 100 µM in the test with UACC-257 melanoma; over 100 µM with HCT-116 colon; over 100 µM in the test on OVCAR-4 ovarian. Besides, the TGI was 93.4 µM in the test with UACC-62 melanoma, over 100 µM in the test with MDA-MB-435, 39 µM with 786-0 renal and over 100 µM in the test with MDA-MB-231 breast.

Take `COC(=O)[C@@]12CSC[C@]1(C(=O)OC)N[C@@H](c1ccccc1O)C2`: the TGI in the test with NCI-H23 lung, in the test on U251 CNS, in the test with SK-MEL-5 melanoma, in the test with UACC-257 melanoma, in the test on HCT-116 colon and with OVCAR-4 ovarian was over 100 µM in each case. For the same compound, the TGI in the test on UACC-62 melanoma, in the test on HL-60(TB) leukemia, with MDA-MB-435 and with 786-0 renal was over 100 µM in each case.

For the compound `O=C(N/N=C\c1ccc(Cl)cc1)Nc1ccc2ccccc2c1`, the TGI was over 100 µM with NCI-H23 lung; 63.5 µM in the test on U251 CNS; over 100 µM in the test on SK-MEL-5 melanoma; over 100 µM in the test with UACC-257 melanoma; over 100 µM with HCT-116 colon; 39.2 µM in the test with OVCAR-4 ovarian. In addition, the TGI is over 100 µM with UACC-62 melanoma, over 100 µM in the test with MDA-MB-435, 38.4 µM with 786-0 renal and over 100 µM in the test with MDA-MB-231 breast.

Turning to `O=C1/C(=C/c2cccc([N+](=O)[O-])c2)N=C(c2ccccc2)N1c1nc2ccc(Sc3ccccc3)cc2[nH]1`, the TGI in the test with NCI-H23 lung, in the test on U251 CNS, in the test on SK-MEL-5 melanoma, in the test on UACC-257 melanoma, in the test with HCT-116 colon and in the test with OVCAR-4 ovarian was over 100 µM each time. The TGI in the test on UACC-62 melanoma was over 100 µM; in the test with MDA-MB-435, 37 µM; with 786-0 renal it was over 100 µM; with MDA-MB-231 breast, over 100 µM.

On to `O=C(O)c1ccc2c(O)c(O)ccc2c1`, for which the TGI worked out at 50.5 µM in the test with NCI-H23 lung; 45.6 µM in the test with U251 CNS; 35.6 µM in the test with SK-MEL-5 melanoma; 50.5 µM in the test with UACC-257 melanoma; 79.7 µM in the test on HCT-116 colon; 54.1 µM in the test with OVCAR-4 ovarian. For the same compound, the values for the TGI in the test on MDA-MB-435, in the test with 786-0 renal and in the test with MDA-MB-231 breast were 34.7 µM, 43.9 µM and 68.5 µM, respectively.

With `COc1cc2ncnc(NS(=O)(=O)c3cc4ccccc4s3)c2cc1OC`, the TGI with NCI-H23 lung, with U251 CNS, in the test on SK-MEL-5 melanoma, in the test with UACC-257 melanoma, with HCT-116 colon and in the test on OVCAR-4 ovarian was over 100 µM throughout. In addition, the TGI in the test on UACC-62 melanoma, in the test with MDA-MB-435, in the test on 786-0 renal and in the test on MDA-MB-231 breast was over 100 µM throughout.

As for `CCN(CC)Cc1cc(N=Nc2c(O)ccc3c(N=Nc4ccc(O)c(CN(CC)CC)c4)c(O)ccc23)ccc1O`, the TGI in the test on NCI-H23 lung was found to be 12.7 µM; with U251 CNS it was 15.5 µM; with SK-MEL-5 melanoma, 7.42 µM; with UACC-257 melanoma, 16.5 µM; in the test with HCT-116 colon it was 4.38 µM; in the test on OVCAR-4 ovarian, 7.21 µM. In addition, the TGI in the test on UACC-62 melanoma came to 16.2 µM; in the test on MDA-MB-435 it was 20.8 µM; in the test with 786-0 renal it was 3.75 µM; with MDA-MB-231 breast, 4.52 µM.

For `CCC1(O)C(=O)OCc2c1cc1n(c2=O)Cc2cc3cc4c(cc3nc2-1)OCO4` (centres undefined), the TGI in the test on NCI-H23 lung is under 0.0109 µM; in the test on U251 CNS, 0.183 µM; in the test with SK-MEL-5 melanoma, 0.02 µM; in the test on UACC-257 melanoma it was 0.822 µM; in the test on HCT-116 colon, 0.108 µM; with OVCAR-4 ovarian it was 1.49 µM. For the same compound, the TGI in the test on UACC-62 melanoma is 0.0509 µM; with HL-60(TB) leukemia, 0.479 µM; in the test on MDA-MB-435 it was 9.1 µM; with 786-0 renal it was 0.102 µM.

In the case of `CN(C)N1C(=O)C(=O)N(c2cccc3ccccc23)C1=O`, the TGI in the test on NCI-H23 lung, with U251 CNS, in the test on SK-MEL-5 melanoma, in the test with HCT-116 colon, in the test with OVCAR-4 ovarian and in the test with UACC-62 melanoma was over 10 µM throughout. Further, the TGI in the test on HL-60(TB) leukemia, with MDA-MB-435 and with MDA-MB-231 breast was over 10 µM each time.

With `COc1ccc(-c2cc(-c3ccc(C)cc3)n(C3OC(COC(C)=O)C(OC(C)=O)C(OC(C)=O)C3OC(C)=O)c(=S)c2C#N)cc1` (centres undefined), the TGI in the test on NCI-H23 lung, in the test with U251 CNS, in the test with SK-MEL-5 melanoma, in the test on HCT-116 colon, in the test with OVCAR-4 ovarian and with UACC-62 melanoma was over 100 µM in each case. The TGI with HL-60(TB) leukemia, with MDA-MB-435, in the test with 786-0 renal and in the test on MDA-MB-231 breast was over 100 µM each time.

Regarding `O=C(COc1cc(=O)oc2ccccc12)c1ccccc1`, the TGI is 65.2 µM with NCI-H23 lung; 34.1 µM with U251 CNS; over 100 µM in the test with SK-MEL-5 melanoma; over 100 µM with UACC-257 melanoma; 32 µM in the test with HCT-116 colon; over 100 µM in the test with OVCAR-4 ovarian. For the same compound, the TGI with UACC-62 melanoma was 44.1 µM; in the test with HL-60(TB) leukemia, over 100 µM; with 786-0 renal, over 100 µM; in the test with MDA-MB-231 breast, over 100 µM.

For the compound `CCOP(=O)(OCC)C(c1ccc(F)cc1)N(C(=O)NC(F)(F)F)c1ccc(F)cc1` (centres undefined), the TGI in the test with NCI-H23 lung, with U251 CNS, in the test on SK-MEL-5 melanoma, in the test with UACC-257 melanoma, in the test on HCT-116 colon and with HL-60(TB) leukemia was over 100 µM each time. Besides, the TGI in the test on MDA-MB-435, in the test with 786-0 renal and with MDA-MB-231 breast was over 100 µM in each case.

As to `COc1ccc(C2CC(c3sc(Nc4ccc(C)cc4)nc3C)=NN2)cc1` (centres undefined), the TGI was found to be 30.7 µM in the test with NCI-H23 lung; 28.4 µM with U251 CNS; 30.1 µM in the test on SK-MEL-5 melanoma; 32.6 µM with UACC-257 melanoma; 15.1 µM with HCT-116 colon; 18.3 µM with OVCAR-4 ovarian. The figures for the TGI with UACC-62 melanoma and with HL-60(TB) leukemia were over 55.3 µM and 24.6 µM, respectively.

Regarding `COP(=O)(OC)C(N)Cc1c[nH]c2ccccc12` (centres undefined), the TGI in the test on NCI-H23 lung, in the test on U251 CNS, in the test with SK-MEL-5 melanoma, in the test on UACC-257 melanoma, in the test with HCT-116 colon and in the test with OVCAR-4 ovarian was over 100 µM in each case. The TGI in the test on MDA-MB-435 and with MDA-MB-231 breast was over 100 µM throughout.
